Patent publication US9526721B2, “Tetrahydroprotoberbine compounds and uses thereof in the treatment of neurological, psychiatric and neurodegenerative diseases” (priority 2012, dated 2016)

Key:
rats [1] = experiment: Microdialysis of prefrontal cortex and nucleus accumbens; conditions: for 5-HIAA in NAc / DOPAC in NAc / HVA in NAc / dopamine level in NAc / 5-HIAA in PFC / DOPAC in PFC / HVA in PFC / dopamine level in PFC: microdialysis; for 5-HIAA in NAc / DOPAC in NAc / HVA in NAc / dopamine level in NAc: nucleus accumbens; for 5-HIAA in PFC / DOPAC in PFC / HVA in PFC / dopamine level in PFC: prefrontal cortex;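 for all read-outs here: dialysate collected every 10 min from freely moving rats, analysed by HPLC with electrochemical detection, after four stable baseline samples (under 10% variation) preceding drug dosing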
Description: Rats received subcutaneous injections of an analgesic (ketoprofen 0.05 mL or buprenorphine, 0.1 mL) and sterile saline (0.9% NaCl, ˜3 mL). Once shaved and cleaned, the heads were secured in the stereotaxic frame in flat skull position for bilateral implantation of stainless steel microdialysis guide cannulae (19 gauge×15 mm) in the nucleus accumbens (NAc) (from bregma +1.7 mm anterior and ±1.1 mm medial; from dura −1.0 mm ventral) or medial prefrontal cortex (mPFC) (+3.0 mm anterior, ±0.6 mm medial; −1.0 mm ventral). […] Rats were allowed to rest with heat support until they regained consciousness, and then given a one-week recovery period.
Microdialysis probes were assembled 1-2 days prior to microdialysis experiments. Probes were concentric in design, constructed from Filtral 12 AN69HF semi-permeable hollow fibres (2 mm length, 340 μm OD×4 mm, 65 kDalton molecular weight cut-off; Hospal, Neurnberg, Germany) and silica inlet-outlet lines (75/150 um ID/OD).
The day prior to microdialysis experiments, probes were connected to an Instech dual-channel liquid swivel (Plymouth Meeting, Pa.) and flushed with artificial cerebrospinal fluid (aCSF). […] Following DA recovery tests, probes were implanted via the guide cannulae (dialysis membrane spanned −4.8 to −6.8 mm ventrally for NAc; −1.6 to −3.6 mm for mPFC). Rats remained in the testing chamber overnight (14-16 hr) with aCSF perfusing continuously through the probes at 1 μL/min In the morning, microdialysis samples were collected at 10 min intervals and assayed for DA, DOPAC, homovanillic acid (HVA) and 5-HIAA content. Once baseline levels were determined to be stable for four consecutive samples (less than 10% fluctuation), the drug treatment phase of each experiment was initiated.
Microdialysis samples were analyzed immediately after collection using high pressure liquid chromatography (HPLC) with electrochemical detection. […] The mobile phase [70 mM sodium acetate buffer, 40 mg/L EDTA and 50 mg/L of sodium dodecyl sulfate (adjustable), pH 4.0, 10% methanol] flowed through the system at 0.17 mL/min EZChrome Elite software (Scientific Software, Pleasanton, Calif.) was used to acquire and analyze chromatographic data.
After the experiments, rats were deeply anesthetized, brains were removed and stored in 20% w/v sucrose and 4% v/v paraformaldehyde. Brains were sliced into 50 um coronal sections, stained with cresyl violet and examined for probe placement.
Microdialysis probes (2 mm active membrane) were implanted in the NAc and mPFC ˜16 hrs prior to start of the experiment and continuously perfused aCSF.

rats [2] = experiment: Social interaction in NVHL and sham rats; assay type: in vivo, rat; conditions: 1.0 mg/kg IP 15 minutes prior to testing
Description: Experimental rats were neonatal ventral hippocampal lesioned (NVHL) and control (Sham) animals. […] The SI environment consisted of a 83×90×30 cm open field with each surface painted black.

rats [3] = experiment: Latent inhibition; assay type: in vivo, rat; conditions: treatment before each pre-exposure; 1.0 mg/kg d-AMPH before conditioning
Description: Sensitization: Animals were removed from the colony and taken to a holding room where they received either IP d-AMPH or saline every Monday, Wednesday, and Friday. Doses started at 1 mg/kg and increased 1 mg/kg each week over 5 weeks to 5 mg/kg. 25 days after the induction phase, behavioral sensitization was assessed over 3 days in locomotor chambers (plexiglass box, 40 cm×40 cm×40 cm) where speed and distance traveled were recorded using Noldus Ethovision XT (Noldus, Leesburg, Va.). The first day consisted of a 2 hr acclimation session, and prior to counter balanced injections of either 0.5 mg/kg d-AMPH or saline on days 2 and 3 animals were acclimated for 1 hr. Experiments were run in two separate cohorts of 30 animals to minimize the time between testing sensitization and LI.
Latent Inhibition: LI tests were performed in rats treated with 1.0 mg/kg acute d-AMPH, sensitized rats, and drug-naive rats. LI testing began 5 days post-challenge of the escalating dose regime. Animals in both conditions (chronic saline or sensitized) were randomly assigned to either non-pre-exposed (NPE) or pre-exposed (PE) groups. Testing took place over 3 consecutive days. […] Animals in the PE group received 50 presentations of the CS (10 sec duration) per day at a variable interval for the first two days. Animals in the NPE group were placed in the chamber for an equal time as the PE animals. Conditioning (COND) consisted of 100 CS-US pairings. Latency to cross into the other compartment and the number of total beam breaks were recorded. Drug-naïve animals receiving acute 1.0 mg/kg AMPH were injected IP 45 min before the COND trial.
The effects of the two individual enantiomers of govadine on latent inhibition (LI) were also tested as described in Example 12.

D3 = target: T1, D3 (Homo sapiens, UniProt P35462); experiment: Receptor binding, dopamine D3; conditions: receptor expressed in CHO cells
T1 construct: host or cells: CHO cells
Description: (§1) All receptors tested were heterologously expressed CHO cells and IC50 values were determined by a non-linear, least squares regression analysis using MathIQ (ID Business Solution Ltd, UK). Ki was calculated using the equation of Cheng and Prusoff (1973, Biochem. Pharmacol 22:23099-3108) derived from the observed IC50 of the tested compound, the concentration of radioligand employed in the assay, and the historical values for the Kd of the ligand (obtained experimentally at MDS Pharma Services).
as §1, with “receptors” for “receptors tested”, “UK). K1” for “UK). Ki”, “calculated (Y.” for “calculated using the equation of”, “Cheng &” for “Cheng and”, “Prusoff 1973)” for “Prusoff (1973, Biochem. Pharmacol 22:23099-3108) derived”

D2L = target: T2, D2L (Homo sapiens, UniProt P14416); experiment: Receptor binding, dopamine D2L; conditions: for Ki: receptor expressed in CHO cells, read-out: Ki, D2L
T2 construct: host or cells: CHO cells
Description: as §1
as §1, with “receptors” for “receptors tested”, “UK). K1” for “UK). Ki”, “calculated (Y.” for “calculated using the equation of”, “Cheng &” for “Cheng and”, “Prusoff 1973)” for “Prusoff (1973, Biochem. Pharmacol 22:23099-3108) derived”

5HT6 = target: T3, 5HT6 (Homo sapiens, UniProt P50406); experiment: Receptor binding, 5HT6; conditions: CHO cells
T3 construct: host or cells: CHO cells
Description: as §1

Dopamine D1 receptors = target: T4, Dopamine D1 receptors (Homo sapiens, UniProt P21728); experiment: Dopamine D1 receptor Adenylyl Cyclase Cellular Assay (cAMP, HTRF); assay type: cell-based; conditions: for IC50: D1 antagonism, cAMP, CHO cells, read-out: IC50 of antagonistic response; for % Response Agonist: increase in cAMP relative to dopamine response; for % Response Agonist / % Response Antagonist: D1 in CHO cells; for % Response Antagonist: inhibition of dopamine-induced cAMP increase
T4 construct: host or cells: CHO cells
Description: Methods employed in this Example were adapted from Liu et al (1992, Mol Endocrinol 92:1815-1824) and Zhou et al (1990, Nature 347:76-79) to maximize reliability and reproducibility. Reference standards were run as an integral part of each assay to ensure the validity of the results obtained. […] (+)-Butaclamol was used as a positive control for the assay assessing antagonism. Homogeneous fluorescence methodology HTRF homogeneous fluorescence quantitation methodology was used to measure the levels of cAMP. The criterion for significant agonist activity is ≧50% increase in cAMP relative to dopamine response. The criteria for significant antagonist activity ≧50% inhibition of dopamine-induced cAMP increase.

5HT2A = target: T5, 5HT2A (Homo sapiens, UniProt P28223); experiment: Receptor binding, 5HT2A; conditions: receptor expressed in CHO cells
T5 construct: host or cells: CHO cells
Description: as §1
as §1, with “receptors” for “receptors tested”, “UK). K1” for “UK). Ki”, “calculated (Y.” for “calculated using the equation of”, “Cheng &” for “Cheng and”, “Prusoff 1973)” for “Prusoff (1973, Biochem. Pharmacol 22:23099-3108) derived”

rats [4] = experiment: Temporal order recognition (radial arm maze); conditions: for Arm Entries / Distance Travelled: 1.0 mg/kg govadine isomers, 5.0 mg/kg clozapine; for temporal order effect: injected 15 min before test trial
Description: The task exploits a rat's natural preference for novel locations. Each animal received 3 separate trials where access to two arms of an eight arm radial arm maze was granted. During the first trial, two arms were selected at random for exploration, and animals were allowed to explore these arms for 2 min After this time, they were taken off the maze and returned to their home cage. 1 hour later they were placed back on the maze and two new arms were randomly selected for 2 min of exploration.
Time spent in each arm (recent and old) was recorded as well as total distance traveled and the total number of arm entries in Noldus EthoVision 3.1 (Leesburg, Va.).

D4.2 = target: T6, D4.2 (Homo sapiens, UniProt P21917, DEL265-296); experiment: Receptor binding, dopamine D4.2; conditions: CHO cells
T6 construct: host or cells: CHO cells
T6 sequence (P21917 with tags, fused parts or gaps DEL265-296): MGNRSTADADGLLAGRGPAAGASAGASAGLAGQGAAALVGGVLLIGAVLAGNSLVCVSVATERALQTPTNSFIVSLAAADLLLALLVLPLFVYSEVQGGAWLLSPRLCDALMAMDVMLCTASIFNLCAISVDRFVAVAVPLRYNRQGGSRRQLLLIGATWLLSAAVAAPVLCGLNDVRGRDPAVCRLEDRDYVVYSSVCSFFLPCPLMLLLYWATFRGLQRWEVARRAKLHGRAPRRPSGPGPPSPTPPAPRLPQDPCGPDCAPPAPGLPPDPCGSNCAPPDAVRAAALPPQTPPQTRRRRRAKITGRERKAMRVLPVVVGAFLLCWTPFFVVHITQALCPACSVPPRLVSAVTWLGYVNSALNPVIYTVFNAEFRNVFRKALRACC
Description: as §1

T2 sequence (P14416 whole entry): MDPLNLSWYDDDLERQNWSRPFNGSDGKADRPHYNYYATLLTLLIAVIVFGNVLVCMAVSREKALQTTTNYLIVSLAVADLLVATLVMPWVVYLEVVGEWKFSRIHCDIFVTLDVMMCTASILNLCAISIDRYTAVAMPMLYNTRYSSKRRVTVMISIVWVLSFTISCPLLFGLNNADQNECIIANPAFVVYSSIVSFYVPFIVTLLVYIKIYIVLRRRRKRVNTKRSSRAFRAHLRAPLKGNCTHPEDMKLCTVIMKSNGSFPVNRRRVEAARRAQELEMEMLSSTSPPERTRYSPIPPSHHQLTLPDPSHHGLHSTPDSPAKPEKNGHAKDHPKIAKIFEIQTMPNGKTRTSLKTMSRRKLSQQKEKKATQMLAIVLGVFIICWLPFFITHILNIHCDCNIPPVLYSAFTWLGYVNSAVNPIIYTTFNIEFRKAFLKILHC
T4 sequence (P21728 whole entry): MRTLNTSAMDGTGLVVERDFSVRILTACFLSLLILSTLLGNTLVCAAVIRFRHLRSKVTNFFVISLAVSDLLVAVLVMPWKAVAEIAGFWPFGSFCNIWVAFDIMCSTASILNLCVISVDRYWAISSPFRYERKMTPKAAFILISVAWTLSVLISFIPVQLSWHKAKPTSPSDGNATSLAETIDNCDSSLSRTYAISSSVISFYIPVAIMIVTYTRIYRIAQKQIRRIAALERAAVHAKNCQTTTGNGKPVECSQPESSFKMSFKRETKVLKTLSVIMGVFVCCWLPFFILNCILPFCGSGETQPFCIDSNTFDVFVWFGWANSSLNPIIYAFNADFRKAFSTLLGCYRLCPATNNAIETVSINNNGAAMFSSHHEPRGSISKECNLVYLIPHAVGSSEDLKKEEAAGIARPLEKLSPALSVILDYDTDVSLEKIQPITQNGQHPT
T1 sequence (P35462 whole entry): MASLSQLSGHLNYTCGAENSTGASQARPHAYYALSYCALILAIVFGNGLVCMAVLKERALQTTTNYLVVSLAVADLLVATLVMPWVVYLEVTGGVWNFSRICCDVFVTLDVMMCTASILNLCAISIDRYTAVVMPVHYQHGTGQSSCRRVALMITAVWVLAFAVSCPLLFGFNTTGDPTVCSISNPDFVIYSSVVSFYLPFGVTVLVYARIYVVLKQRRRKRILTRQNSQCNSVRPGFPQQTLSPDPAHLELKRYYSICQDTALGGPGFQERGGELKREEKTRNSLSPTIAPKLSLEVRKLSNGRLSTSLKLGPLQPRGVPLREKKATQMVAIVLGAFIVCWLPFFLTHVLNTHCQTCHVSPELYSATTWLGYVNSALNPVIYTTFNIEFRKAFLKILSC
T3 sequence (P50406 whole entry, species assumed): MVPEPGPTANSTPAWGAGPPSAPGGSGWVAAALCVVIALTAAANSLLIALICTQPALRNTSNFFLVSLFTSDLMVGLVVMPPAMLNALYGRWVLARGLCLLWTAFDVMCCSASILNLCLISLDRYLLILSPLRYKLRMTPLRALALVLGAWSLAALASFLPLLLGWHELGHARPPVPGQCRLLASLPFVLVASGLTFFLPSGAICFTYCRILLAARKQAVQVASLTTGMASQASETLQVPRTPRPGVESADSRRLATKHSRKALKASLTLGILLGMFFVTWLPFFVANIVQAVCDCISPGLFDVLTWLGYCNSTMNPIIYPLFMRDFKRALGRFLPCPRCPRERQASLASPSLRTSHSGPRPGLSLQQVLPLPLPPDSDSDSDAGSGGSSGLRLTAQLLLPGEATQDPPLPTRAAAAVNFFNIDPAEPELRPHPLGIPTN
T5 sequence (P28223 whole entry, species assumed): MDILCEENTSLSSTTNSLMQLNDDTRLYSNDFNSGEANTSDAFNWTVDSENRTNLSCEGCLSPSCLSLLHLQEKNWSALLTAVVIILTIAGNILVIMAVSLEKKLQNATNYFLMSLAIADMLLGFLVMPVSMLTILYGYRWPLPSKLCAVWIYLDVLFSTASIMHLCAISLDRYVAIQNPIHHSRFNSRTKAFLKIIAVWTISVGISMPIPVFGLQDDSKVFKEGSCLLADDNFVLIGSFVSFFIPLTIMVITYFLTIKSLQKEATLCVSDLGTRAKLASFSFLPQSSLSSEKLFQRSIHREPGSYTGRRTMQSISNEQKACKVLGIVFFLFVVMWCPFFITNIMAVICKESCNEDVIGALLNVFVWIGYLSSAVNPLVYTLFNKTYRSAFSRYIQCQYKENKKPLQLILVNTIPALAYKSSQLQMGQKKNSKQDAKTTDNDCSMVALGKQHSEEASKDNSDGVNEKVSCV

Structure (SMILES)	5-HIAA in NAc (rats [1])	DOPAC in NAc (rats [1])	HVA in NAc (rats [1])	dopamine level in NAc (rats [1])	5-HIAA in PFC (rats [1])	DOPAC in PFC (rats [1])	HVA in PFC (rats [1])	dopamine level in PFC (rats [1])	social interaction in NVHL rats versus Sham controls (rats [2])	latent inhibition in acute d-AMPH-treated animals (rats [3])	Ki (D3)	binding affinity to the D2 receptor (D2L)	Ki (D2L)	inhibition at 10 µM (5HT6)	IC50 (Dopamine D1 receptors)	% Response Agonist (Dopamine D1 receptors)	% Response Antagonist (Dopamine D1 receptors)	Ki (5HT2A)	Arm Entries (rats [4]; 45 min. delay)	Distance Travelled (rats [4]; 45 min. delay)	also measured
COc1cc2c(cc1O)CN1CCc3cc(OC)c(O)cc3[C@H]1C2 [d-govadine]	not the NAc	no increase observed	no increase observed	not in the NAc	increased	increased	increased	selectively increased	comparable levels of SI	restored LI	606 nM	weak affinity	1340 nM	9%	2380 nM	2%	82%	11800 nM	14.8 ± 1.9	2433 ± 363	temporal order effect (rats [4]; 45 min delay): abolished; temporal order effect (rats [4]; 4 hr delay): restored temporal order recognition; Arm Entries (rats [4]; 4 hr. delay): 11 ± 1.1; Distance Travelled (rats [4]; 4 hr. delay): 2091 ± 114; inhibition at 10 µM (D4.2): 20%
COc1cc2c(cc1O)CN1CCc3cc(OC)c(O)cc3[C@@H]1C2 [l-govadine]	No increase	increase	increase	increased	No increase	increase	increase	increased	comparable levels of SI	restored LI	548 nM	strong affinity	165 nM	12%	16.6 nM	2%	87%	11100 nM	3.67 ± 1.9	587.7 ± 109	DA efflux in NAc and mPFC compared to control (rats [1]; 1 mg/kg, Example 15): enhanced DA efflux; temporal order effect (rats [4]; 45 min delay): abolished; temporal order effect (rats [4]; 4 hr delay): no temporal order effect; Arm Entries (rats [4]; 4 hr. delay): 3.5 ± 0.9; Distance Travelled (rats [4]; 4 hr. delay): 824 ± 135; inhibition at 10 µM (D4.2): 21%
